Structures can show the parent of a compound that is named as a salt.
system: influenza virus neuraminidase; assay type: biochemical; details: compound @ 3.3 mM; substrate 75 μM, pH 6.5, 5 min at 37° C.

Row | Compound | % Inhibition [%]
1 | O=C(O)c1ccc(NC(=O)C(F)(F)F)cc1 [Example 9, 4-(Trifluoroacetamido)benzoic acid] | 56

same assay, conditions: compound @ 3.5 mM; substrate 75 μM, pH 6.5, 5 min at 37° C.

Row | Compound | % Inhibition [%]
2 | N=C(N)Cc1cccc(C(=O)O)c1 [Example 23, 3-(2-Amino-2-imino)ethylbenzoic acid complex with water (5:1)] | 22

same assay, conditions: substrate 75 μM, pH 6.5, 5 min at 37° C.

Row | Compound | % Inhibition at 7 nM [%] | IC50 [µM]
3 | CC(=O)Nc1ccc(C(=O)O)cc1N [Example 37, 4-Acetylamino-3-aminobenzoic acid hydrochloride (2:1)] | 28 | 14000
4 | N=C(N)NC(=N)Nc1ccccc1 [Example 3, 1-Phenylbiguanide] | 75 | 5500
5 | CC(=O)Nc1ccc(C(=O)O)cc1 [Example 4, 4-Acetylaminobenzoic acid] | 39 | –
6 | CNC(=O)c1ccc(C(=O)O)cc1 [Example 27, 4-(Methylaminocarbonyl)benzoic acid] | 27 | –
7 | CC(=O)Nc1ccc(C(=O)O)cc1CCO [Example 33, β-(2-N-Acetylamino-5-carboxyphenyl)ethanol] | 42 | –
8 | COc1ccc(C(=O)O)cc1NC(=N)N [Example 46, 3-[(Aminoiminomethyl)amino]-4-methoxybenzoic acid hydrochloride (1:1)] | 46 | –
9 | CC(C)C(=O)Nc1ccc(C(=O)O)cc1NC(=N)N [Example 40, 3-[(Aminoiminomethyl)amino]-4-(2-methylpropionylamino)benzoic acid hydrate [2:1]] | – | 1000
10 | N#CN=C(N)Nc1cccc(C(=O)O)c1 [Example 18, 3-[Amino(cyanoimino)methyl]aminobenzoic acid hydrate (4:1)] | 68 | –
11 | CS(=O)(=O)Nc1ccc(C(=O)O)cc1 [Example 16, 4-[(Methylsulfonyl)amino]benzoic acid] | 34 | –
12 | N=C(N)Nc1ccccc1 [Example 1, Phenylguanidine carbonate hydrate (2:1:1)] | 44 | –
13 | CC(=S)Nc1ccc(C(=O)O)cc1 [Example 10, 4-Thioacetamidobenzoic acid] | – | 1000
14 | N=C(N)Nc1cc(N)cc(C(=O)O)c1 [Example 50, Sodium 3-amino-5-[(aminoimino)methyl]aminobenzoate hydrate] | – | 2000
15 | 3-[(Aminoiminomethyl)amino]-4-[(methylamino)carbonyl]benzoic acid hydrochloride, complex with water and methanol (4:4:4:1 and 5:5:5:1) [Example 53] | – | 5
16 | N=C(N)Nc1cc(C(=O)O)ccc1O [Example 47, 3-[(Aminoiminomethyl)amino]-4-hydroxybenzoic acid hydrochloride (1:1)] | 33 | –
17 | CC(=O)Nc1ccc(C(=O)O)cc1CO.[Na+].[OH-] [Example 31, 4-Acetylamino-3-hydroxymethylbenzoic acid, complex with NaOH [5:3]] | 31 | –
18 | CC(=O)Nc1ccc(C(=O)O)cc1CC(O)CO (single isomer, unassigned; isomer a) [Example 35, 4-Acetylamino-3-(2',3'-dihydroxypropyl)benzoic acid, solvate with water [5:1] (Isomer A)] | 25 | 20000
19 | N=C(N)Nc1cccc(C(=O)O)c1 [Example 17, 3-Guanidinobenzoic acid hydrochloride (2:1)] | – | 5000
20 | N=C(N)Nc1cc(C=NO)cc(C(=O)O)c1 [Example 51, 3-[(Aminoiminomethyl)amino]-5-[(N-hydroxylimino)methyl]benzoic acid hydrate (4:3)] | – | 800
21 | CC(=O)Nc1ccc(P(=O)(O)O)cc1 [Example 7, 4-Acetylaminophenylphosphonic acid] | 32 | –
22 | CC(=O)Nc1ccc(C(=O)O)cc1C=NO [Example 42, 4-Acetylamino-3-[(hydroxylimino)methyl]benzoic acid hydrate (4:1)] | – | 5500
23 | CC(C)OC(C)C.CS(=O)(=O)Nc1c(CO)cc(C(=O)O)cc1NC(=N)N [Example 52, 3-(Aminoiminomethyl)amino-5-hydroxymethyl-4-(methylsulfonyl)aminobenzoic acid hydrate complex with diisopropyl ether (10:10:1)] | – | 2000
24 | N#CNc1cccc(C(=O)O)c1 [Example 21, 3-Cyanoaminobenzoic acid hydrate (5:1)] | – | 4000
25 | CC(=O)Nc1ccc(CC(=O)O)cc1 [Example 26, 4-(Acetamido)phenylacetic acid] | 15 | –
26 | CS(=O)(=O)Nc1ccc(C(=O)O)cc1NC(=N)N [Example 43, 3-[(Aminoiminomethyl)amino]-4-[(methylsulfonyl)amino]benzoic acid, solvate with water (2:1)] | – | 100
27 | N=C(N)Nc1cc(NC(=N)N)cc(C(=O)O)c1 [Example 49, 3,5-Bis-[(aminoiminomethyl)amino]benzoic acid hydrochloride, solvate with ethanol (10:15:2)] | – | 1500
28 | CC(=O)Nc1ccc(S(=O)(=O)O)cc1 [Example 6, 4-Acetylaminobenzenesulfonic acid hydrate (4:1)] | 30 | –
29 | CC(=O)Nc1ccc(C(=O)O)cc1CC(O)CO (single isomer, unassigned; isomer b) [Example 36, 4-Acetylamino-3-(2',3'-dihydroxypropyl)benzoic acid, solvate with water [4:3](Isomer B)] | 35 | –

system: HA; details: cited from earlier work

Row | Compound | inhibition of HA in vitro
30 | CC(=O)N[C@H]1[C@H]([C@H](O)[C@H](O)CO)OC(C(=O)O)=C[C@@H]1O [DANA, 2-deoxy-2,3-didehydro-N-acetylneuraminic acid] | inhibit

system: not given; details: cited from earlier work

Row | Compound | activity in vivo
31 | CC(=O)N[C@H]1[C@H]([C@H](O)[C@H](O)CO)OC(C(=O)O)=C[C@@H]1O [DANA, 2-deoxy-2,3-didehydro-N-acetylneuraminic acid] | inactive
